Measurements reported in patent US20140221469A1, “PHYTOCANNABINOIDS FOR USE IN THE TREATMENT OF CANCER” (Otsuka Pharmaceutical Co., Ltd., priority 2011, published 2014).
Read-outs that look alike come from different tables or passages of the source.

How the values were obtained:
[1] = tested on: U87 human glioma cells; assay: MTT colorimetric cell viability assay, U87; type: cell-based; settings: for Effect on tumour cell viability (MTT test), alone / Effect of CB1 antagonist on inhibition of cell proliferation / Effect of CB2 antagonist on inhibition of cell proliferation / Effect of TRPV1 vanilloid antagonist on inhibition of cell proliferation: U87; for IC50: Homo sapiens, U-87 MG, 24 h, read-out: IC50, drop of mitochondrial oxidative metabolism (MTT test); for Effect of CB1 antagonist on inhibition of cell proliferation: AM 251 (0.5 μM) added; for Effect of CB2 antagonist on inhibition of cell proliferation: SR 144528 (0.5 μM) for CBG, AM630 (0.5 μM) for CBDV; for Effect of TRPV1 vanilloid antagonist on inhibition of cell proliferation: capsazepine (0.625 μM) added
Description: The human glioma cell line U87-MG was obtained from the American Type Culture Collection (Rockville, USA). Cells were maintained in DMEM supplemented with 10% heat-inactivated foetal bovine serum (Euroclone, Italy), 1% glutamine, 1% antibiotic mixture, 1% sodium pyruvate, 1% non-essential amino acids, at 37° C. in a humidified 5% CO2 atmosphere. Cells were seeded in complete medium. After a 24 h incubation, the medium was replaced by serum-free medium (ITSS medium), consisting of DMEM supplemented with 5 μg/ml insulin, 5 μg/ml transferrin, and 5 […].
(§1) To determine the effects of the phytocannabinoids upon cell viability, the applicants employed a MTT colorimetric assay ([3-(4,5-dimethyl-2-thiazolyl)-2,5-diphenyl-2H tetrazolium bromide]; Sigma-Aldrich). Briefly, U87 human glioma cells were seeded in a 96-well flat bottom multi-well at a density of 8000 cells/well. After 24 h, cells were treated with THCV, CBDV and CBG and/or receptor antagonists at the indicated concentrations. At the end of the incubation with the drugs, MTT (0.5 mg/ml final concentration) was added to each well and the incubation was then continued for 4 h. The insoluble formazan crystals were solubilized by the addition of 100 μl of 100% dimethyl sulfoxide. The plates were read at 570 nm using an automatic microtiter plate reader.

[2] = tested on: U87 cells; assay: Evaluation of apoptosis (propidium iodide flow cytometry), U87; type: cell-based, human; settings: 24 h
Description: 3.4×10^5 tumour cells were cultured in 6 well-plates in the presence or absence of CBDV or THCV for 24 h, as described above and the percentage of apoptotic cells on the total cell population (adhering/detached cells) was evaluated. Briefly, cells were collected, washed, and centrifuged at 1300 rpm. They were then fixed in ethanol 70% for at least 30 min at −20° C. After centrifugation, the cell pellet was gently re-suspended in 1 ml of PBS solution containing propidium iodide (PI, 50 μg/ml) and RNAse (20 μg/ml). Cells were analyzed after a minimum of 30 min of incubation in the dark at room temperature, and apoptosis was detected in individual cells using a flow cytometer (equipped with a single 488-nm argon laser; BD Biosciences, San Jose, Calif.) by reduced fluorescence of PI in apoptotic nuclei.

[3] = tested on: subcutaneously implanted U87 human glioma cells; settings: nude mice, subcutaneous, 0.5 mg/mouse; cited from earlier work
[4] = tested on: U87 glioma cells; settings: Boyden chamber; cited from earlier work
[5] = tested on: human breast cell line MDA MB 231; assay: Migration in breast cell line MDA-MB 231; type: cell-based; settings: MDA-MB 231 breast cell line
[6] = tested on: U87-MG cells; assay: Cell motility assay (Boyden chamber), U87-MG; type: cell-based, human
Description: (§2) BD BioCoat Control Inserts (BD, USA) were used to examine the ability of U87-MG cells to migrate through an 8.0 micron pore size PET membrane. U87-MG cells (2.5×10^4 cells) were re-suspended in 500 μl of serum-free medium in presence of phytocannabinoids, and added to the upper chamber. The lower chamber was filled with 0.75 ml of complete medium as chemo-attractant. Cells were then incubated for 22 h at 37° C. After removal of cells on the upper surface of the membrane, cells on the lower surface were fixed in 100% methanol and stained with Diff-Quick stain (Medion Diagnostics, USA). Sixteen fields of cells were counted randomly in each well under a light microscope at 200× magnification. Data was expressed as the percentage of migrating cells as compared with the control. All the experiments were performed in triplicates and results were expressed as mean±SEM of three independent experiments.
The effect of THCV on U87 glioma cells invasion and motility was determined by Boyden chamber assay. […] The effect was even evident at concentrations as low as 0.25 μM.

[7] = tested on: U87 cells; assay: Matrigel cell invasion assay, U87; type: cell-based, human
Description: (§3) BD BioCoat matrigel invasion chambers (BD, USA) were used to examine the ability of U87 cells to penetrate the extracellular matrix. U87 cells (2.5×10^4 cells) were re-suspended in 500 μl of serum-free medium in the presence of the phytocannabinoids, and added to the upper chamber. The lower chamber was filled with 0.75 ml of complete medium as chemo-attractant. Cells were then incubated for 22 h at 37° C. After removal of cells on the upper surface of the membrane, cells on the lower surface were fixed in 100% methanol and stained with Diff-Quick stain (Medion Diagnostics, USA). Sixteen fields of cells were counted randomly in each well under a light microscope at 200× magnification. Data was expressed as the percentage of invasive cells as compared with the control. All the experiments were performed in triplicates and results were expressed as mean±SEM of three independent experiments.
The matrigel invasion assay was carried out to further examine the effect of THCV on the invasiveness on U87 glioma cells.

[8] = tested on: T98G cell line; assay: MTT test, T98G; type: cell-based, human; settings: for Effect of pre-treatment with CB1 antagonist on anti-proliferative effect: AM251; for Effect of pre-treatment with CB2 antagonist on anti-proliferative effect: AM630
Description: as §1
(§4) In a further set of experiments, Examples 8-10 the compounds were evaluated on a different cell line, T98G, which was obtained from the American Type Culture Collection (Rockville, USA). The protocols employed were as described above.

[9] = tested on: T98G cell; assay: Trypan Blue test, T98G; type: cell-based, human
Description: To further confirm the ability of CBDV, CBG and THCV to inhibit T98G cell growth, a Trypan Blue test was also conducted.

[10] = tested on: T98G glioma cells; assay: Cell migration (Boyden chamber), T98G; type: cell-based, human; settings: for Inhibition of migration of the cells: irrespective of the concentration used
Description: as §2, §4
The effect of CBDV on T98G glioma cells invasion and motility was determined by Boyden chamber assay.

[11] = tested on: T98G glioma cells; assay: Matrigel invasion assay, T98G; type: cell-based, human
Description: as §3, §4
The matrigel invasion assay was carried out to further examine the effect of the CBDV on the invasiveness of T98G glioma cells.

[12] = tested on: recurrent glioblastoma multiforme; settings: nine patients, intra-tumoural; 95% confidence interval: 15-33; cited from earlier work
[13] = Homo sapiens, 24 h, read-out: IC50, drop of mitochondrial oxidative metabolism (MTT test)

C=C(C)[C@@H]1CCC(C)=C[C@H]1c1c(O)cc(CCCCC)cc1O [CBD, Cannabidiol, reference compound]
Effect on tumour cell viability (MTT test), alone ([1]; 5 μM): ineffective | Effect on tumour cell viability (MTT test), alone ([1]; 9 μM): effective | Apoptosis, alone ([2]; 5 μM): did not cause any apoptosis | Apoptosis, alone ([2]; 9 μM): significant induction of apoptosis | Growth of subcutaneously implanted U87 human glioma cells [3]: significantly inhibited the growth | Migration of U87 glioma cells [4]: concentration-dependent inhibition

C=C(C)[C@@H]1CCC(C)=C[C@H]1c1c(O)cc(CCCCC)c(C(=O)O)c1O [CBDA, Cannabidiolic acid]
Effect on migration [5]: inhibit migration in a statistically significant manner

C=C(C)[C@@H]1CCC(C)=C[C@H]1c1c(O)cc(CCC)cc1O [CBDV, Cannabidivarin]
IC50 [1]: 24.2 µM | Effect of CB1 antagonist on inhibition of cell proliferation [1]: able to significantly increase the inhibitory action of CBDV on glioma cell growth at 19, 40, and 50 μM concentrations | Effect of CB2 antagonist on inhibition of cell proliferation [1]: able to significantly increase the inhibitory action of CBDV on glioma cell growth at 19, 40, and 50 μM concentrations | Effect of TRPV1 vanilloid antagonist on inhibition of cell proliferation [1]: a significant increase of the inhibitory action of CBDV was seen only at 14 and 19 μM | Concentration as low as which the anti-migratory effect was evident [6]: 1 µM | Effect on cell migration [6]: significantly inhibited the migration | Concentration as low as which the anti-invasive effect was evident ([7]; U87): 1 µM | Decrease of the number of invading cells, average effect ([7]; U87, across the concentrations tested): 45% | IC50 ([8]; 24 h after cannabinoid exposure): 27 µM | Effect of pre-treatment with CB1 antagonist on anti-proliferative effect [8]: exhibited some sensitivity | Effect of pre-treatment with CB2 antagonist on anti-proliferative effect [8]: exhibited some sensitivity | IC50 ([8]; Homo sapiens, 24 h, read-out: IC50, drop of mitochondrial oxidative metabolism (MTT test), T98G, 24 h after cannabinoid exposure): 27.1 µM | Cell viability, Trypan Blue test [9]: inhibited cells viability in the same dose range as for MTT test | Concentration as low as which the anti-migratory effect was evident [10]: 0.5 µM | Inhibition of migration of the cells [10]: 55% | Inhibition of cell invasiveness ([11]; concentration range from 0.5 to 12 μM): about 70%

CCCCCc1cc(O)c(C/C=C(\C)CCC=C(C)C)c(O)c1 [CBG, Cannabigerol]
IC50 [1]: 12.1 µM | Effect of CB1 antagonist on inhibition of cell proliferation [1]: able to antagonize the inhibitory action of the phytocannabinoid on glioma cells growth only at 19 and 25 μM concentrations | Effect of CB2 antagonist on inhibition of cell proliferation [1]: failed to antagonize the anti-proliferative effect | Effect of TRPV1 vanilloid antagonist on inhibition of cell proliferation [1]: failed to antagonize the anti-proliferative effect | Effect on cell migration [6]: did not inhibit | Effect on cell invasion ([7]; U87): did not inhibit | Effect of pre-treatment with CB1 antagonist on anti-proliferative effect [8]: unaffected | Effect of pre-treatment with CB2 antagonist on anti-proliferative effect [8]: unaffected | IC50 [8, 13]: 17.3 µM | Cell viability, Trypan Blue test [9]: inhibited cells viability in the same dose range as for MTT test | Effect on cell migration [10]: did not inhibit | Effect on cell invasion [11]: did not inhibit

CCCCCc1cc(O)c2c(c1)OC(C)(C)[C@@H]1CCC(C)=C[C@@H]21 [THC, Tetrahydrocannabinol]
Median survival from the beginning of cannabinoid administration [12]: 24 weeks

CCCCCc1cc2c(c(O)c1C(=O)O)[C@@H]1C=C(C)CC[C@H]1C(C)(C)O2 [THCA, Tetrahydrocannabinolic acid]
Effect on migration [5]: inhibit migration in a statistically significant manner

CCCc1cc(O)c2c(c1)OC(C)(C)[C@@H]1CCC(C)=C[C@@H]21 [THCV, Tetrahydrocannabivarin]
IC50 [1]: 13.8 µM | Effect on tumour cell viability (MTT test), alone ([1]; 5 μM): ineffective | Effect on tumour cell viability (MTT test), alone ([1]; 10 μM): effective | Effect of CB1 antagonist on inhibition of cell proliferation [1]: none of the antagonists was effective in reversing and/or potentiating the effect | Effect of CB2 antagonist on inhibition of cell proliferation [1]: none of the antagonists was effective in reversing and/or potentiating the effect | Effect of TRPV1 vanilloid antagonist on inhibition of cell proliferation [1]: none of the antagonists was effective in reversing and/or potentiating the effect | Apoptosis, alone ([2]; 5 μM): did not cause any apoptosis | Apoptosis, alone ([2]; 10 μM): did not cause any apoptosis | Concentration as low as which the anti-migratory effect was evident [6]: 0.25 µM | Inhibition of migration of the cells ([6]; irrespectively of the concentrations used, 22 h): 55% | inhibition at 5 µM ([7]; Homo sapiens, U-87 MG, read-out: Inhibition of cell invasiveness): 55% | Inhibition of cell invasiveness ([7]; U87, 0.5 and 1 μM): about 35% | Effect of pre-treatment with CB1 antagonist on anti-proliferative effect [8]: unaffected | Effect of pre-treatment with CB2 antagonist on anti-proliferative effect [8]: unaffected | IC50 [8, 13]: 16.1 µM | Cell viability, Trypan Blue test [9]: inhibited cells viability in the same dose range as for MTT test | Inhibition of migration of the cells [10]: about 50% | Effect on cell invasion [11]: U-shaped dose-response curve
